This note sets out measurements from US12517113B2, “Multikinase degraders” (University of Houston System, priority 2019, dated 2026).

The target in one experiment is T1, CHK1 kinase (Homo sapiens, UniProt O14757).
T1 construct: endogenous in cells; host or cells: A375 human malignant melanoma cells (ATCC)
T1 sequence (O14757 1-476): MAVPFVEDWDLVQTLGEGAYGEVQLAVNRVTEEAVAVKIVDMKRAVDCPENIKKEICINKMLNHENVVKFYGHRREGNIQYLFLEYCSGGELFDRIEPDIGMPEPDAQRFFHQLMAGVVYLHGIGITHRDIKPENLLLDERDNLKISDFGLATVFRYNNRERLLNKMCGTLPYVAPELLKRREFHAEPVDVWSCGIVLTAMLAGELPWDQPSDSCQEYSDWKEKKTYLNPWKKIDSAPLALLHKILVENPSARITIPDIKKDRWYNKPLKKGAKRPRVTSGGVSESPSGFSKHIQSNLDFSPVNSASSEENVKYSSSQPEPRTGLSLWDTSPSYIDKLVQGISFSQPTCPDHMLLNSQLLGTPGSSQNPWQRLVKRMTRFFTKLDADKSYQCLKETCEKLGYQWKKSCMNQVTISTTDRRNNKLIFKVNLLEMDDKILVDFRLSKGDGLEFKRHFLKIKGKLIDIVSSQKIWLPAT
The experiment is described as follows: CHK1 degradation in A375 melanoma cells, western blotting. Format: cell-based. The conditions noted are these: western blot; for degradation of CHK1 kinase: 18 h treatment, 37° C., FIG. 6. On the procedure:
(§1) Tests were performed to determine the activity of the exemplary PROTACs PEG1-thalidomide, PEG2-thalidomide, PEG3-thalidomide, and PEG4-thalidomide having the structures shown above. Human A375 malignant melanoma cells were obtained from American Type Culture Collection ATCC) and cultured according to ATCC protocols. Subsequently cells were treated with the PROTACs for 18 h at 37° C. and 5% CO2. Subsequently cells were harvested and lysed using commercially available lysis buffer (Biorad) containing Roche cOmplete™ Protease Inhibitor Cocktail tablets. The amount of degraded proteins were probed with specific antibodies purchased from Cell Signaling in western blotting. α-Tubulin was used as the loading control.
In further tests, human A375 malignant melanoma cells were treated with PEG2-thalidomide at different concentrations for 12 h at 37° C. and 5% CO2. Proteins CHK1, GAPDH, and α-Tubulin were probed by specific antibodies. GAPDH and α-Tubulin were used as the loading control. […] Cell culture conditions, lysis and western blotting were performed similar to above.

The test system of experiment [1] is A375 malignant melanoma cells. Nature of the experiment: A375 cell viability, CellTiter Glo assay. Type of experiment: cell-based. The following applies: Homo sapiens, A-375, 48 h treatment, 384 well plates, FIG. 10. The procedure:
In further tests, human A375 malignant melanoma cells were treated with PEG2-thalidomide for 48 h at 37° C. and 5% CO2. Subsequently, the viability of A375 malignant melanoma cells was checked using CellTiter Glo assay (Promega) in 384 well plates, and the luminescence signal was quantified using Biotek H1 plate reader.

Another experiment deals with MEK kinase. The experiment is described as follows: MEK degradation in A375 melanoma cells, western blotting. Type of experiment: cell-based, human. The conditions noted are these: 12 h, western blot, FIG. 8. On the procedure:
as §1
(§2) In further tests, the effect of PEG2-Thalidomide degrader […] was tested. Human A375 malignant melanoma cells were treated with PEG2-thalidomide for 12 h at 37° C. and 5% CO2. Proteins MEK and ERK were probed by specific antibodies. The procedure used was similar to the one outlined above.

A further experiment has as its system ERK kinase. Nature of the experiment: ERK degradation in A375 melanoma cells, western blotting. The conditions noted are these: 12 h, western blot, FIG. 8. Type of experiment: cell-based, human. On the procedure:
as §1, §2

For the molecule `N#CCc1ccc(Nc2nc(Nc3cc(C4CC4)[nH]n3)cc(C(=O)NCc3cn(CCOCCOCCNC(=O)COc4cccc5c4C(=O)N(C4CCC(=O)NC4=O)C5=O)nn3)n2)cc1` (stereo not drawn) [PEG2-thalidomide], the “degradation of CHK1 kinase” value on CHK1 kinase is given as “degrade the protein CHK1”. For the same molecule, the “dose response of degradation of CHK1” value on CHK1 kinase (different concentrations, 12 h, FIG. 7) was “demonstrating its degradation”. Further, the IC50 in experiment [1] came to 768 nM. Besides, the “degradation of MEK kinase” value in the experiment with MEK kinase is “degradation of MEK”. Moreover, the “degradation of ERK kinase” value in the experiment on ERK kinase is given as “not ERK”.

With `N#CCc1ccc(Nc2nc(Nc3cc(C4CC4)[nH]n3)cc(C(=O)NCc3cn(CCOCCOCCOCCOCCNC(=O)COc4cccc5c4C(=O)N(C4CCC(=O)NC4=O)C5=O)nn3)n2)cc1` (stereo not drawn) [PEG4-thalidomide], at CHK1 kinase, the “degradation of CHK1 kinase” value is listed as “degrade the protein CHK1”.
